Results as given in the supplement of paper PMC10307832.

Tests used:
Assay in all cases: relative viability (nuclei count vs DMSO), 5 days (fraction); higher = more cells survive
R406 + Pictilisib = compound: COc1cc(Nc2ncc(F)c(Nc3ccc4c(n3)NC(=O)C(C)(C)O4)n2)cc(OC)c1OC [R406] + CS(=O)(=O)N1CCN(Cc2cc3nc(-c4cccc5[nH]ncc45)nc(N4CCOCC4)c3s2)CC1 [Pictilisib] (partner 1 µM)
In short: (§1)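 For relative viability, nuclei counts in treated wells were divided by those in vehicle wells. Lung cancer cell lines had been pin-tool dosed in 1536-well plates the day after seeding and cultured for 5 days, then fixed and stained in one step (final 0.05% Triton X-100, 1% formaldehyde, 1 ug/ml Hoechst) and imaged at 4×. Doses were one drug alone or a fixed anchor-drug dose plus five library-drug doses (not always all listed) in √10 steps, and values are duplicate-plate medians.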

Daporinad + Trametinib = compound: O=C(/C=C/c1cccnc1)NCCCCC1CCN(C(=O)c2ccccc2)CC1 [Daporinad] + CC(=O)Nc1cccc(-n2c(=O)n(C3CC3)c(=O)c3c(Nc4ccc(I)cc4F)n(C)c(=O)c(C)c32)c1 [Trametinib] (partner 0.02 µM)
In short: as §1

R406 + Decitabine = compound: COc1cc(Nc2ncc(F)c(Nc3ccc4c(n3)NC(=O)C(C)(C)O4)n2)cc(OC)c1OC [R406] + Nc1ncn([C@H]2C[C@H](O)[C@@H](CO)O2)c(=O)n1 [Decitabine] (partner 2 µM)
In short: as §1

Daporinad + AZD7762 = compound: O=C(/C=C/c1cccnc1)NCCCCC1CCN(C(=O)c2ccccc2)CC1 [Daporinad] + NC(=O)Nc1cc(-c2cccc(F)c2)sc1C(=O)N[C@H]1CCCNC1 [AZD7762] (partner 0.2 µM)
In short: as §1

Cell Line	relative viability (R406 + Pictilisib; first compound 0.08 µM)	relative viability (R406 + Pictilisib; first compound 0.253 µM)	relative viability (R406 + Pictilisib; first compound 0.8 µM)	relative viability (R406 + Pictilisib; first compound 2.53 µM)	relative viability (R406 + Pictilisib; first compound 8 µM)	relative viability (Daporinad + Trametinib; first compound 0.0005 µM)	relative viability (Daporinad + Trametinib; first compound 0.001581 µM)	relative viability (Daporinad + Trametinib; first compound 0.005 µM)	relative viability (Daporinad + Trametinib; first compound 0.01581 µM)	relative viability (R406 + Decitabine; first compound 0.08 µM)	relative viability (R406 + Decitabine; first compound 0.253 µM)	relative viability (R406 + Decitabine; first compound 0.8 µM)	relative viability (R406 + Decitabine; first compound 2.53 µM)	relative viability (R406 + Decitabine; first compound 8 µM)	relative viability (Daporinad + AZD7762; first compound 0.0005 µM)	relative viability (Daporinad + AZD7762; first compound 0.001581 µM)	relative viability (Daporinad + AZD7762; first compound 0.005 µM)	relative viability (Daporinad + AZD7762; first compound 0.01581 µM)
HCC-44	0.569	0.647	0.611	0.526	0.335	1.02	1.15	1.08	1.07	0.924	1.04	0.856	1	1.05	1.02	0.967	0.994	1.03
HCC-78	0.233	0.219	0.259	0.173	0.185	0.68	0.821	0.71	1.1	0.566	0.785	0.702	0.749	0.61	0.6	0.626	0.53	0.796
HCC-366	0.128	0.163	0.141	0.113	0.122	0.332		0.376	0.409	0.317	0.372	0.36	0.344	0.112	0.255		0.247	0.268
HCC-827	0.944	0.735	1.11	0.687	0.862	0.498	0.508	0.553	0.552	0.323	0.412	0.401	0.219	0.268	0.219	0.23	0.263	0.287
IA-LM	0.443	0.475	0.359	0.409	0.264													
NCI-H520	0.286	0.408	0.377	0.191	0.195	0.639	0.721	0.185	0.136	0.455	0.684	0.53	0.302	0.158				
NCI-H522						0.906	0.753	0.67	0.835	0.726	0.688	0.762	0.587	0.616	0.808	1.13	0.816	0.538
NCI-H661	0.367	0.456	0.459	0.345	0.271	0.665	0.746	0.52	0.376	0.478	0.531	0.615	0.473	0.405				
NCI-H1299	0.791	0.816	0.874	0.427	0.162													
NCI-H1563	0.678	0.656	0.726	0.594	0.492													
NCI-H1648						0.469	0.418	0.417	0.447	0.53	0.527	0.483	0.515	0.36	0.649	0.577	0.674	0.653
NCI-H1650	0.645	0.668	0.652	0.148	0.122	0.565	0.628	0.635	0.572	0.475	0.407	0.359	0.413	0.411				
NCI-H1703	0.229	0.207	0.278	0.214	0.187										0.134	0.123	0.155	0.142
NCI-H2009	0.793	0.76	0.892	0.289	0.192	0.261	0.35	0.315	0.31	0.371	0.42	0.383	0.353	0.294				
NCI-H2023	0.239	0.243	0.257	0.0848	0.12	0.605	0.523	0.539	0.621	0.246	0.254	0.247	0.127	0.195				
NCI-H2228	0.587	0.222	0.532	0.169	0.187	0.439	0.18	0.576	0.531									
NCI-H2342						1.04	0.82	0.782	0.844	0.681	0.768	0.759	0.668	0.691	0.508	0.457	0.612	0.532
SK-LU-1	0.46	0.658	0.546	0.277	0.173	0.48	0.522	0.55	0.615	0.583	0.832	0.728	0.599	0.476				
SK-MES-1	0.34	0.325	0.333	0.234	0.195	0.561	0.524	0.613	0.743	0.351	0.384	0.455	0.229	0.181				
SW 900						0.668		1.03	0.663	0.486	0.469	0.446	0.555	0.173	0.647		0.72	0.654
SW 1573	0.45	0.499	0.543	0.422	0.31	0.499	0.45	0.447	0.28	0.398	0.579	0.604	0.186	0.172				
